Laboratory results from patent US10738028B2, “Spiro three-membered ring, spiro five-membered ring peptide deformylase inhibitor and use thereof in antibacteria and anti-tumor” (priority 2016, dated 2020).
Values after ≈ are worked out from the molar mass of the structure shown.

Experiments:
Assay type in all cases: cell-based
[1] = test system: methicillin-resistant Staphylococcus epidermidis (MRSE); assay: MIC, two-fold agar dilution (CLSI), clinical isolates
Source text: (§1) 1. The invention adopts the two-fold agar dilution method recommended by the operating procedure of antimicrobial susceptibility testing set by American Clinical and Laboratory Standards Institute (CLSI) to determine the Minimum Inhibitory Concentration (MIC) of the test samples against the tested strains.

[2] = test system: Enterococcus faecium (EFM); assay: as above
Source text: as §1

[3] = test system: methicillin-sensitive Staphylococcus epidermidis (MSSE); assay: as above
Source text: as §1

[4] = test system: Enterococcus faecalis (EFA); assay: as above
Source text: as §1

[5] = test system: Moraxella catarrhalis (BCA); assay: as above
Source text: as §1

[6] = test system: methicillin-sensitive Staphylococcus aureus (MSSA); assay: as above
Source text: as §1

[7] = test system: methicillin-resistant Staphylococcus aureus (MRSA); assay: as above
Source text: as §1

[8] = test system: Escherichia coli (including ESBLs, non-ESBLs); assay: as above
Source text: as §1

[9] = test system: Streptococcus pneoumoniae (SPN); assay: as above
Source text: as §1

[10] = test system: HCT-116 colorectal cancer cell line; assay: CCK-8 proliferation inhibition; settings: Homo sapiens, HCT-116, 72 h, concentration of 30 μM; 72 hours; CCK-8; read-out: HCT116 inhibition rate/%
Description: (1) HCT-116 colorectal cancer cell line, A549 lung cancer cell line, MGC-803 gastric cancer cell line, BEL-7402 liver cancer cell line, Jurkat T cell leukemia cell line, HL60 acute myeloid leukemia cell line, Hela cervical cancer cell line, MCF-7 breast cancer cell line, PC3 prostate cancer cell line and SAOS-2 osteosarcoma cell line were made into single cell suspension, 180 μL of which was inoculated into 96-well culture plate, which was cultured overnight in CO2 incubator (37° C., 5% CO2, 95% air).
(2) Each of the spiro three-membered ring, spiro five membered ring peptide deformylase inhibitors was dissolved in DMSO, and was further formulated into drug solution with required different final concentration using corresponding cell culture medium. The drug solutions were added to the above cells respectively (20 μL/well), with the control group added with 1‰ DMSO, and cultured in a CO2 incubator for 72 hours.
(3) After incubation for 72 hours, the culture solution was decanted, and 100 μL of 1:10 diluted CCK-8 solution was added.
Wherein, in step (1), the concentration of the single cell suspension was 2000 cells/well.
Wherein, in step (2), HCT-116 cells were cultured in McCoy's 5A medium (containing 10% newborn bovine serum, 1% double antibody); A549 and PC3 cells were cultured in F12 medium (containing 10% newborn bovine serum, 1% double antibody); MGC-803, BEL-7402, SAOS-2, Jurkat and HL60 cells were cultured in 1640 medium (containing 10% newborn bovine serum, 1% double antibody); and MCF-7 and Hela cells were cultured in DMEM high glucose medium (containing 10% newborn bovine serum, 1% double antibody).

## CCCC[C@H](CN(O)C=O)C(=O)N1CC2(CC2)C[C@H]1C(=O)Nc1ccno1 [Example 17]
[1]; strain MRSE 15-1
  MIC (anti-bacterial activity): 0.25 µg/mL (≈ 0.661 µM)
[1]; strain MRSE 15-2
  MIC (anti-bacterial activity): 0.5 µg/mL (≈ 1.32 µM)
[1]; strain MRSE 15-3
  MIC (anti-bacterial activity): 0.5 µg/mL (≈ 1.32 µM)
[1]; strain MRSE 15-7
  MIC (anti-bacterial activity): 1 µg/mL (≈ 2.64 µM)
[2]; strain EFM 15-1
  MIC (anti-bacterial activity): 1 µg/mL (≈ 2.64 µM)
[2]; strain EFM 15-2
  MIC (anti-bacterial activity): 2 µg/mL (≈ 5.29 µM)
[2]; strain EFM 15-3
  MIC (anti-bacterial activity): 0.5 µg/mL (≈ 1.32 µM)
[2]; strain EFM 15-4
  MIC (anti-bacterial activity): 2 µg/mL (≈ 5.29 µM)
[2]; strain EFM 15-5
  MIC (anti-bacterial activity): 1 µg/mL (≈ 2.64 µM)
[2]; strain EFM 15-6
  MIC (anti-bacterial activity): 2 µg/mL (≈ 5.29 µM)
[3]; strain MSSE 15-3
  MIC (anti-bacterial activity): 1 µg/mL (≈ 2.64 µM)
[3]; strain MSSE 15-4
  MIC (anti-bacterial activity): 0.5 µg/mL (≈ 1.32 µM)
[3]; strain MSSE 15-5
  MIC (anti-bacterial activity): 0.5 µg/mL (≈ 1.32 µM)
[3]; strain MSSE 15-6
  MIC (anti-bacterial activity): 0.25 µg/mL (≈ 0.661 µM)
[4]; strain EFA 15-1
  MIC (anti-bacterial activity): 8 µg/mL (≈ 21.1 µM)
[4]; strain EFA 15-2
  MIC (anti-bacterial activity): 8 µg/mL (≈ 21.1 µM)
[4]; strain EFA 15-3
  MIC (anti-bacterial activity): 2 µg/mL (≈ 5.29 µM)
[4]; strain EFA 15-4
  MIC (anti-bacterial activity): 8 µg/mL (≈ 21.1 µM)
[4]; strain EFA 15-5
  MIC (anti-bacterial activity): 8 µg/mL (≈ 21.1 µM)
[4]; strain EFA 15-6
  MIC (anti-bacterial activity): 8 µg/mL (≈ 21.1 µM)
[4]; strain EFA 15-9
  MIC (anti-bacterial activity): 8 µg/mL (≈ 21.1 µM)
[5]; strain BCA 14-1
  MIC (anti-bacterial activity): 4 µg/mL (≈ 10.6 µM)
[5]; strain BCA 14-4
  MIC (anti-bacterial activity): 2 µg/mL (≈ 5.29 µM)
[5]; strain BCA 14-5
  MIC (anti-bacterial activity): 1 µg/mL (≈ 2.64 µM)
[5]; strain BCA 14-6
  MIC (anti-bacterial activity): 2 µg/mL (≈ 5.29 µM)
[5]; strain BCA 14-7
  MIC (anti-bacterial activity): 1 µg/mL (≈ 2.64 µM)
[5]; strain BCA 14-8
  MIC (anti-bacterial activity): 2 µg/mL (≈ 5.29 µM)
[5]; strain BCA 14-10
  MIC (anti-bacterial activity): 1 µg/mL (≈ 2.64 µM)
[6]; strain MSSA 15-3
  MIC (anti-bacterial activity): 1 µg/mL (≈ 2.64 µM)
[6]; strain MSSA 15-4
  MIC (anti-bacterial activity): 1 µg/mL (≈ 2.64 µM)
[6]; strain MSSA 15-5
  MIC (anti-bacterial activity): 0.25 µg/mL (≈ 0.661 µM)
[6]; strain MSSA 15-6
  MIC (anti-bacterial activity): 1 µg/mL (≈ 2.64 µM)
[7]; strain MRSA 15-1
  MIC (anti-bacterial activity): 1 µg/mL (≈ 2.64 µM)
[7]; strain MRSA 15-2
  MIC (anti-bacterial activity): 1 µg/mL (≈ 2.64 µM)
[7]; strain MRSA 15-3
  MIC (anti-bacterial activity): 1 µg/mL (≈ 2.64 µM)
[7]; strain MRSA 15-4
  MIC (anti-bacterial activity): 1 µg/mL (≈ 2.64 µM)
[8]; strain ECO+ 15-1
  MIC (anti-bacterial activity): 32 µg/mL (≈ 84.6 µM)
[8]; strain ECO+ 15-2
  MIC (anti-bacterial activity): 32 µg/mL (≈ 84.6 µM)
[8]; strain ECO+ 15-3
  MIC (anti-bacterial activity): > 32 µg/mL
[8]; strain ECO+ 15-4
  MIC (anti-bacterial activity): > 32 µg/mL
[8]; strain ECO− 15-1
  MIC (anti-bacterial activity): 16 µg/mL (≈ 42.3 µM)
[8]; strain ECO− 15-2
  MIC (anti-bacterial activity): 32 µg/mL (≈ 84.6 µM)
[8]; strain ECO− 15-3
  MIC (anti-bacterial activity): > 32 µg/mL
[8]; strain ECO− 15-4
  MIC (anti-bacterial activity): 32 µg/mL (≈ 84.6 µM)
[9]; strain SPN 16-2
  MIC (anti-bacterial activity): 8 µg/mL (≈ 21.1 µM)
[9]; strain SPN 16-4
  MIC (anti-bacterial activity): 1 µg/mL (≈ 2.64 µM)
[10]
  inhibition at 30 µM: 13%

## CCCC[C@H](CN(O)C=O)C(=O)N1CC2(CC2)C[C@H]1C(=O)NC1CC1 [Example 18]
[1]; strain MRSE 15-1
  MIC (anti-bacterial activity): 2 µg/mL (≈ 5.69 µM)
[1]; strain MRSE 15-2
  MIC (anti-bacterial activity): 2 µg/mL (≈ 5.69 µM)
[1]; strain MRSE 15-3
  MIC (anti-bacterial activity): 2 µg/mL (≈ 5.69 µM)
[1]; strain MRSE 15-7
  MIC (anti-bacterial activity): 2 µg/mL (≈ 5.69 µM)
[2]; strain EFM 15-1
  MIC (anti-bacterial activity): 8 µg/mL (≈ 22.8 µM)
[2]; strain EFM 15-2
  MIC (anti-bacterial activity): 8 µg/mL (≈ 22.8 µM)
[2]; strain EFM 15-3
  MIC (anti-bacterial activity): 2 µg/mL (≈ 5.69 µM)
[2]; strain EFM 15-4
  MIC (anti-bacterial activity): 8 µg/mL (≈ 22.8 µM)
[2]; strain EFM 15-5
  MIC (anti-bacterial activity): 4 µg/mL (≈ 11.4 µM)
[2]; strain EFM 15-6
  MIC (anti-bacterial activity): 8 µg/mL (≈ 22.8 µM)
[3]; strain MSSE 15-3
  MIC (anti-bacterial activity): 2 µg/mL (≈ 5.69 µM)
[3]; strain MSSE 15-4
  MIC (anti-bacterial activity): 2 µg/mL (≈ 5.69 µM)
[3]; strain MSSE 15-5
  MIC (anti-bacterial activity): 2 µg/mL (≈ 5.69 µM)
[3]; strain MSSE 15-6
  MIC (anti-bacterial activity): 2 µg/mL (≈ 5.69 µM)
[4]; strain EFA 15-1
  MIC (anti-bacterial activity): 32 µg/mL (≈ 91.1 µM)
[4]; strain EFA 15-2
  MIC (anti-bacterial activity): 32 µg/mL (≈ 91.1 µM)
[4]; strain EFA 15-3
  MIC (anti-bacterial activity): 8 µg/mL (≈ 22.8 µM)
[4]; strain EFA 15-4
  MIC (anti-bacterial activity): 32 µg/mL (≈ 91.1 µM)
[4]; strain EFA 15-5
  MIC (anti-bacterial activity): 32 µg/mL (≈ 91.1 µM)
[4]; strain EFA 15-6
  MIC (anti-bacterial activity): 32 µg/mL (≈ 91.1 µM)
[4]; strain EFA 15-9
  MIC (anti-bacterial activity): 32 µg/mL (≈ 91.1 µM)
[5]; strain BCA 14-1
  MIC (anti-bacterial activity): 16 µg/mL (≈ 45.5 µM)
[5]; strain BCA 14-4
  MIC (anti-bacterial activity): 8 µg/mL (≈ 22.8 µM)
[5]; strain BCA 14-5
  MIC (anti-bacterial activity): 4 µg/mL (≈ 11.4 µM)
[5]; strain BCA 14-6
  MIC (anti-bacterial activity): 16 µg/mL (≈ 45.5 µM)
[5]; strain BCA 14-7
  MIC (anti-bacterial activity): 4 µg/mL (≈ 11.4 µM)
[5]; strain BCA 14-8
  MIC (anti-bacterial activity): 4 µg/mL (≈ 11.4 µM)
[5]; strain BCA 14-10
  MIC (anti-bacterial activity): 4 µg/mL (≈ 11.4 µM)
[6]; strain MSSA 15-3
  MIC (anti-bacterial activity): 2 µg/mL (≈ 5.69 µM)
[6]; strain MSSA 15-4
  MIC (anti-bacterial activity): 2 µg/mL (≈ 5.69 µM)
[6]; strain MSSA 15-5
  MIC (anti-bacterial activity): 2 µg/mL (≈ 5.69 µM)
[6]; strain MSSA 15-6
  MIC (anti-bacterial activity): 2 µg/mL (≈ 5.69 µM)
[7]; strain MRSA 15-1
  MIC (anti-bacterial activity): 2 µg/mL (≈ 5.69 µM)
[7]; strain MRSA 15-2
  MIC (anti-bacterial activity): 2 µg/mL (≈ 5.69 µM)
[7]; strain MRSA 15-3
  MIC (anti-bacterial activity): 2 µg/mL (≈ 5.69 µM)
[7]; strain MRSA 15-4
  MIC (anti-bacterial activity): 2 µg/mL (≈ 5.69 µM)
[8]; strain ECO+ 15-1
  MIC (anti-bacterial activity): 32 µg/mL (≈ 91.1 µM)
[8]; strain ECO+ 15-2
  MIC (anti-bacterial activity): 32 µg/mL (≈ 91.1 µM)
[8]; strain ECO+ 15-3
  MIC (anti-bacterial activity): 32 µg/mL (≈ 91.1 µM)
[8]; strain ECO+ 15-4
  MIC (anti-bacterial activity): 32 µg/mL (≈ 91.1 µM)
[8]; strain ECO− 15-1
  MIC (anti-bacterial activity): > 32 µg/mL
[8]; strain ECO− 15-2
  MIC (anti-bacterial activity): > 32 µg/mL
[8]; strain ECO− 15-3
  MIC (anti-bacterial activity): 32 µg/mL (≈ 91.1 µM)
[8]; strain ECO− 15-4
  MIC (anti-bacterial activity): 32 µg/mL (≈ 91.1 µM)
[9]; strain SPN 16-2
  MIC (anti-bacterial activity): 16 µg/mL (≈ 45.5 µM)
[9]; strain SPN 16-4
  MIC (anti-bacterial activity): 4 µg/mL (≈ 11.4 µM)
[10]
  inhibition at 30 µM: 5%
